Read-outs that look alike come from different tables or passages of the source.
Assay: log P determination by HPLC on reversed-phase columns (C 18), analogously to OECD Guideline 117
Format: physicochemical
Conditions: for logP (HCOOH): LC-MS in the acidic range, pH 2.7, 0.1% aqueous formic acid / acetonitrile; for logP (HCOOH) / logP (neutral): HPLC reversed-phase C 18; for logP (neutral): LC-MS in the neutral range, pH 7.8, 0.001 molar aqueous ammonium hydrogencarbonate / acetonitrile
Method: The log P values were determined analogously to OECD Guideline 117 (EC Directive 92/69/EEC) by HPLC (high-performance liquid chromatography) using reversed-phase columns (C 18), by the following methods:
[a] The LC-MS determination in the acidic range was effected at pH 2.7 with 0.1% aqueous formic acid and acetonitrile (contains 0.1% formic acid) as eluents; linear gradient from 10% acetonitrile to 95% acetonitrile. log P^[a] is also referred to as log P(HCOOH). [b] LC-MS determination in the neutral range was effected at pH 7.8 with 0.001 molar aqueous ammonium hydrogencarbonate solution and acetonitrile as eluents; linear gradient from 10% acetonitrile to 95% acetonitrile. log P^[…] is also referred to as log P(neutral).

[1] = reversed-phase C18 HPLC column, acidic range, pH 2.7, 0.1% aqueous formic acid and acetonitrile, read-out: log P[a] / log P(HCOOH)
[2] = reversed-phase C18 HPLC column, neutral range, pH 7.8, 0.001 molar aqueous ammonium hydrogencarbonate and acetonitrile, read-out: log P[b] / log P(neutral)

chromatographic logP [1] | chromatographic logP [2] | SMILES | also measured
4.29 | 4.25 | FC(F)(F)CSc1cc(Br)ccc1Br [VIIa-13, 1,4-Dibromo-2-[(2,2,2-trifluoroethyl)sulfanyl]benzene] | –
0.12 | – | CC(C)n1[nH]c(=O)n(C)c1=O [drawing 120 R1=CH(CH3)2 R10=CH3, 1-isopropyl-4-methyl-1,2,4-triazolidine-3,5-dione] | –
4.39 | 4.36 | Fc1cc(Br)c(SCC(F)(F)F)cc1Br [VIIa-14, 1,4-Dibromo-2-fluoro-5-[(2,2,2-trifluoroethyl)sulfanyl]benzene] | –
1.66 | 1.63 | Cn1c(OCc2ccccc2Cl)n[nH]c1=O [drawing 121 R1=2-chlorobenzyl R10=CH3, 5-[(2-chlorobenzyl)oxy]-4-methyl-2,4-dihydro-3H-1,2,4-triazol-3-one] | –
1.94 | 1.93 | COc1ccc(B(O)O)cc1SCC(F)(F)F [VIIIa-8, {4-Methoxy-3-[(2,2,2-trifluoroethyl)sulfanyl]phenyl}boronic acid] | –
3.89 | 3.86 | Fc1cc(F)c(SCC(F)(F)F)cc1Br [VIIa-15, 1-Bromo-2,4-difluoro-5-[(2,2,2-trifluoroethyl)sulfanyl]benzene] | –
0.83 | – | Cn1[nH]c(=O)n(C(C)(C)C)c1=O [drawing 120 R1=CH3 R10=C(CH3)3, 4-tert-butyl-1-methyl-1,2,4-triazolidine-3,5-dione] | –
1.61 | 1.61 | Cc1cc(C)c([S+]([O-])CC(F)(F)F)cc1B(O)O (stereo not drawn) [VIIIb-11, {2,4-Dimethyl-5-[(2,2,2-trifluoroethyl)sulfinyl]phenyl}boronic acid] | –
0.45 | 0.47 | C=CCn1c(OC)n[nH]c1=O [drawing 121 R1=CH3 R10=CH2CH═CH2, 4-allyl-5-methoxy-2,4-dihydro-3H-1,2,4-triazol-3-one] | –
1.74 | 1.68 | [O-][S+](CC(F)(F)F)c1cc(B(O)O)ccc1Cl (stereo not drawn) [VIIIb-3, {4-Chloro-3-[(2,2,2-trifluoroethyl)sulfinyl]phenyl}boronic acid] | –
4.28 | 4.29 | Fc1cc(Cl)c(SCC(F)(F)F)cc1Br [VIIa-2, 1-Bromo-4-chloro-2-fluoro-5-[(2,2,2-trifluoroethyl)sulfanyl]benzene] | –
0.27 | – | CC(C)n1c(=O)[nH]n(C)c1=O [drawing 120 R1=CH3 R10=CH(CH3)2, 4-isopropyl-1-methyl-1,2,4-triazolidine-3,5-dione] | –
1 | 1.03 | C=CCOc1n[nH]c(=O)n1C1CC1 [drawing 121 R1=CH2CH═CH2 R10=cyclopropyl, 5-(allyloxy)-4-cyclopropyl-2,4-dihydro-3H-1,2,4-triazol-3-one] | –
1.21 | – | O=c1[nH]n(Cc2ccccc2)c(=O)n1C1CC1 [drawing 120 R1=benzyl R10=cyclopropyl, 1-benzyl-4-cyclopropyl-1,2,4-triazolidine-3,5-dione] | –
0.78 | – | Cn1c(=O)[nH]n(C2CCCC2)c1=O [drawing 120 R1=cyclopentyl R10=CH3, 1-cyclopentyl-4-methyl-1,2,4-triazolidine-3,5-dione] | –
0.5 | – | CC(C)n1[nH]c(=O)n(C2CC2)c1=O [drawing 120 R1=CH(CH3)2 R10=cyclopropyl, 4-cyclopropyl-1-isopropyl-1,2,4-triazolidine-3,5-dione] | –

Continued, molecule first:

SMILES | chromatographic logP [1] | chromatographic logP [2] | also measured
Cc1cc(F)c(-n2c(=O)n(C(C)C)c(=O)n2C(C)(C)C)cc1[S+]([O-])CC(F)(F)F (racemic) [Example 152] | – | – | logP (HCOOH): 3.40; logP (neutral): 3.35
CCn1c(=O)n(C(C)C)c(=O)n1-c1cc([S+]([O-])CC(F)(F)F)c(C)cc1F (stereo not drawn) [Example 93] | – | – | logP (HCOOH): 2.58; logP (neutral): 2.54
Cc1cc(F)c(B2OC(C)(C)C(C)(C)O2)cc1SCC(F)(F)F [2-{2-Fluoro-4-methyl-5-[(2,2,2-trifluoroethyl)sulfanyl]phenyl}-4,4,5,5-tetramethyl-1,3,2-dioxaborolane] | 4.91 | 4.81 | –
C=CCOC(=O)Nc1cc(SCC(F)(F)F)c(C)cc1F [Allyl N-[2-fluoro-4-methyl-5-(2,2,2-trifluoroethylsulfanyl)phenyl]carbamate] | – | – | chromatographic logP (acidic range, pH 2.7, 0.1% aqueous formic acid and acetonitrile, read-out: log P[a] / log P(HCOOH)): 3.59
Cc1cc(F)c(NC(=S)NCC(F)(F)F)cc1SCC(F)(F)F [1-{2-Fluoro-4-methyl-5-[(2,2,2-trifluoroethyl)sulfanyl]phenyl}-3-(2,2,2-trifluoroethyl)thiourea] | 3.32 | 3.24 | –
Cc1cc(F)c(-n2c(=O)n(C(C)C)c(=O)n2CC(F)(F)F)cc1[S+]([O-])CC(F)(F)F (racemic) [Example 153] | – | – | logP (HCOOH): 2.95; logP (neutral): 3.04
Cc1cc(F)c(-n2c(=O)[nH][nH]c2=O)cc1SCC(F)(F)F [4-{2-Fluoro-4-methyl-5-[(2,2,2-trifluoroethyl)sulfanyl]phenyl}-1,2,4-triazolidine-3,5-dione] | 1.82 | – | –
Cc1cc(F)c(-n2c(=O)n(C)c(=O)n2C2C=CCCC2)cc1[S+]([O-])CC(F)(F)F (stereo not drawn) [Example 96] | – | – | logP (HCOOH): 2.66; logP (neutral): 2.61
Cc1cc(F)c(-n2[nH]c(=O)n(-c3cccc(C(F)(F)F)c3)c2=O)cc1[S+]([O-])CC(F)(F)F (racemic) [Example 158] | – | – | logP (HCOOH): 2.69; logP (neutral): 1.10
Cc1cc(F)c(N2C(=O)N(C)C(=O)C2(C)C)cc1[S+]([O-])CC(F)(F)F (stereo not drawn) [Example 216, 1-[2-Fluoro-4-methyl-5-(2,2,2-trifluoroethylsulfinyl)phenyl]-3,5,5-trimethylimidazolidine-2,4-dione] | 2.05 | – | –
Cc1cc(F)c(-n2c(=O)n(C)c(=O)n2-c2cc(F)c(C#N)cc2F)cc1SCC(F)(F)F [Example 78] | – | – | logP (HCOOH): 3.40; logP (neutral): 3.29
OB(O)c1cc(SCC(F)(F)F)c(Cl)cc1Cl [VIIIa-6, {2,4-Dichloro-5-[(2,2,2-trifluoroethyl)sulfanyl]phenyl}boronic acid] | 2.61 | 2.52 | –
CCn1c(=O)n(-c2cc([S+]([O-])CC(F)(F)F)c(C)cc2F)c(=O)n1CC (stereo not drawn) [Example 119, 1,2-Diethyl-4-{2-fluoro-4-methyl-5-[(2,2,2-trifluoroethyl)sulfinyl]phenyl}-1,2,4-triazolidine-3,5-dione] | 2.07 | – | –
Cc1cc(F)c(-n2c(=O)n(C(C)(C)C)c(=O)n2C)cc1[S+]([O-])CC(F)(F)F (stereo not drawn) [Example 95] | – | – | logP (HCOOH): 2.69; logP (neutral): 2.65
CC1(C)OB(c2ccc(Cl)c(SCC(F)(F)F)c2)OC1(C)C [2-{4-Chloro-3-[(2,2,2-trifluoroethyl)sulfanyl]phenyl}-4,4,5,5-tetramethyl-1,3,2-dioxaborolane] | 5.27 | 5.16 | –
Cc1cc(F)c(N2C(=O)C(=O)N(C3CC3)C2=O)cc1SCC(F)(F)F [Example 102] | – | – | logP (HCOOH): 3.24
Cc1cc(F)c(-n2c(=O)n(C3CC3)c(=O)n2C)cc1[S+]([O-])CC(F)(F)F (single isomer, unassigned) [Example 197] | – | – | logP (HCOOH): 1.97; logP (neutral): 1.89
Cc1cc(F)c(-n2c(=O)n(C3CC3)c(=O)n2C(C)(C)C)cc1SCC(F)(F)F [Example 144] | – | – | logP (HCOOH): 4.08; logP (neutral): 4.07

— patent publication US9981928B2, “Aryl sulfide derivatives and aryl sulfoxide derivatives as acaricides and insecticides” (BAYER CROPSCIENCE AKTIENGESELLSCHAFT, priority 2013, dated 2018)
